According to patent publication US20090197853A1, “METHODS AND COMPOSITIONS OF TREATING CANCER” (priority 2005, published 2009):

Experiments:
Ramos cells = assay: Annexin-V apoptosis, Ramos; format: cell-based; details: single agent alone
Experimental: Methods: Annexin V/PI. Cells from exponential phase cultures were treated with MGd, zinc, or control (5% mannitol) solution for 24 or 48 hours. After incubation, cells were harvested and washed twice with a solution of 0.5% bovine serum albumin (BSA) in Hanks buffered saline (HBSS). An aliquot of cells (1×10^6) was added to 500 μL diluted binding buffer from the ANNEXIN-V PI Kit (BD Biosciences, San Jose, Calif.). Cells were pelleted, re-suspended in 100 μL of diluted binding buffer, and treated with the ANNEXIN-V PI reagent as per the manufacturer's protocol.

[1] = test system: acute promyelocytic leukemia line (HL60); details: 50 to 100 μM zinc
Experimental: (§1) Cellular Proliferation—The proliferation of exponential phase cultures was assessed by colorimetric assay. In brief, 2×10^5 suspension cells per well were seeded on 96-well V-bottom microtiter plates. Stock solutions of control vehicle, MGd or Zn(OAc)2 in medium were added and plates were incubated at 37° C. under a 5% CO2/95% air atmosphere. After 24 hours, medium was replaced with fresh medium. After 2 additional days, medium was exchanged with fresh medium (150 μL/well) supplemented with 3-(4,5-dimethylthiazol-2-yl)-2,5-diphenyltetrazolium bromide (MTT, 0.5 mg/mL, Sigma Biochemical, St. Louis, Mo.). Plates were incubated at 37° C. and viable cells measured.

Thioredoxin reductase = details: plateau phase PC3 cultures
Experimental: Methods: Lipoate Reduction. Thioredoxin reductase activity was assessed by measuring the rate of lipoate reduction. In brief, A549 or PC3 cells (10,000 cells/well) were plated on 96-well plates and allowed to adhere overnight and grow two additional days until confluent. Cells were treated with MGd, zinc, or 5% mannitol for 2-4 hours, as indicated. Medium was removed, cells were washed with Hanks Balanced Salt Solution (HBSS), and a solution of 5 mM lipoic acid and 1 mM 5,5′-dithiobis(2-nitrobenzoic acid) in HBSS (100 μL/well) was added. Plates were incubated at ambient temperature in the dark. At chosen time intervals, plate absorbance was measured at 405-650 nm. Plate absorbances were normalized to wells containing neither exogenous zinc nor texaphyrin complex to allow plate-to-plate comparison. In some experiments, L-buthionine-[S,R]-sulfoximine (BSO, 100 μM) was added 24 hours prior to MGd or zinc treatment, to inhibit any contribution to lipoate reduction made by glutathione-dependent pathways (28). Actinomycin D (2.5 μg/mL) or cycloheximide (10 μg/mL), where present, was added 1 hour prior to texaphyrin or zinc treatment. Viability was checked on parallel plates using the tetrazolium dye 3-(4,5-dimethylthiazol-2-yl)-5-(3-carboxymethoxyphenyl)-2-(4-sulfophenyl)-2H-tetrazolium (MTS) following the manufacturers protocol (Promega Corp.).

A549 cells = assay: Proliferation (tetrazole reduction/MTT), A549; format: cell-based, human; details: for A549 cell proliferation: exponential phase, 24 hours treatment plus 48 hr growth, zinc up to 100 μM
Experimental: as §1, with “Methods: The” for “Cellular Proliferation—The”

[2] = test system: Ramos, Raji, DB, DHL-4, HF-1, Jurkat, K562 and HL-60 cell lines; assay: Proliferation of hematologic cell lines; format: cell-based; details: for Effect on proliferation: low concentrations of zinc or MGd alone
Experimental: as §1

PC3 cells = assay: Proliferation, PC3; format: cell-based
Experimental: as §1, with “Methods: The” for “Cellular Proliferation—The”

[3] = test system: A549 human lung cancer cells; assay: Gene expression profiling on Affymetrix U133A microarrays, plateau phase A549 cultures; format: cell-based; details: 50 μM MGd
Experimental: Methods: A549 human lung cancer cells (6.5×10^5 cells per T-162 flask in 45 mL complete RPMI 1640 medium) were seeded 10 days prior to treatment of non-cycling plateau phase cultures with MGd. At 4, 12, or 24 hours prior to RNA isolation, MGd (50 μM final concentration) or control (5% mannitol) solution was added to the cultures. Each time course experiment was performed in triplicate. After incubation, all cultures were washed once with PBS and total RNA was subjected to analysis on Affymetrix U133A microarrays, designed to interrogate the relative abundance of over 15,000 human genes.
We used Microarray Suite version 5.0 software (Affymetrix) to generate raw gene expression scores and normalized the relative hybridization signal from each experiment. All gene expression scores were set to a minimum value of one hundred in order to minimize noise associated with less robust measurements of rare transcripts. The permutation-based significance analysis of microarrays (SAM) was used to determine genes differentially expressed in response to MGd treatment compared to the control 5% mannitol-treated cultures (0.125% final) at each time point. We report all genes at least 2-fold differentially expressed with a less than a 1% False Discovery Rate (FDR) in response to MGd treatment (FIG. 10).

[4] = test system: metallothionein gene family members and ZnT1; assay: Northern blot analysis, Ramos cultures; format: cell-based; details: 6 hours
Experimental: (§2) Methods: Northern Blot Analysis—Plateau phase cultures of A549 cells were prepared as described above, except that T-25 flasks were used, and the number of cells initially plated scaled accordingly. Cultures were treated with 50 μM MGd, 5 μM Gd(OAc)3 or 5% mannitol for 4 hours, whereupon cultures were washed twice with PBS and RNA harvested as above. Alternatively, 7-day plateau phase A549 or PC3 cultures were treated with 50 μM MGd, 50-100 μM Zn(OAc)2, 50 μM CdCl2 or 5% mannitol for 24 hours (A549) or 4 hours (PC3) prior to washing and RNA analysis. Exponential phase Ramos cultures were treated for 6 hours. Northern blots were conducted and analyzed. Radio labeled metallothionein probe, designed to bind to a 113-bp region of 3′-UTR sequences from multiple metallothionein gene family members, was generated using 5′-[…]-3′ (forward) and 5′-[…]-3′ (reverse) PCR primers and the NEBlot kit (New England Biolabs, Inc.). Radio labeled ZnT1 probe was generated in a similar fashion using 5′-[…]-3′ (forward) and 5′-[…]-3′ (reverse) primers.

[5] = test system: metallothionein gene family members and ZnT1; assay: Northern blot analysis, PC3 cultures; format: cell-based; details: PC3, 4 hours
Experimental: as §2

SMILES | Annexin-V signal (Ramos cells) | Proliferation [1] | Lipoate reduction (Thioredoxin reductase) | A549 cell proliferation (A549 cells) | Proliferation ([2]; 50 to 100 μM zinc, four additional B-cell lines, K562, Jurkat) | Effect on proliferation ([2]; all cell lines) | PC3 cell proliferation (PC3 cells) | hbc647 transcript (likely 3′-UTR of ZnT1) ([3]; all three time points) | Metallothionein isoform transcripts (microarray) ([3]; all time points) | Effect of MGd on the anti-proliferative activity of zinc (A549 cells; A549, all MGd concentrations tested) | Effect of MGd on sensitivity to zinc (proliferation) ([2]; all cell lines) | Effect of MGd co-treatment on the inhibition of proliferation by zinc ([2]; all lines except HL60) | Expression of metallothionein family members and ZnT1 [4] | Expression of metallothionein family members and ZnT1 [5] | Effect of MGd on the effect of zinc on proliferation (PC3 cells; PC3)
CC(=O)[O-].CC(=O)[O-].[Zn+2] [Zn(OAc)2, Zinc acetate] | No significant change | but not in an acute promyelocytic leukemia line (HL60) | inhibited at lower concentrations of zinc | modestly inhibited | inhibited the proliferation | no significant effect | inhibited |  |  |  |  |  |  |  | 
CC(=O)[O-].CC(=O)[O-].CCc1c(CC)c2cc3nc(cnc4cc(OCCOCCOCCOC)c(OCCOCCOCCOC)cc4ncc4nc(cc1[n-]2)C(CCCO)=C4C)C(C)=C3CCCO.O.[Gd+3] [MGd, Motexafin gadolinium] | No significant change |  |  | no effect on proliferation |  | no significant effect |  | up-regulated | up-regulation | enhanced the anti-proliferative activity of zinc | increased | potentiated the inhibition by zinc | increased | increased | enhanced the effect of zinc
